The record followed here is patent publication US9932543B2, “Bacterial spore compositions for industrial uses” (priority 2014, dated 2018).

Bridge positions count the residues as written; N and C are the ends. Square brackets hold non-standard residues; d marks the D form. Peptide text beside a SMILES is read from it. * marks the point of attachment. Ileψ(thiazoline)Cys = CC[C@H](C)[C@H](N)C1=N[C@H](C(=O)*)CS1; dOrn = NCCC[C@@H](N)C(=O)O

This experiment has as its system Eimeria maxima and Clostridium perfringens. Format: in vivo, Cobb 500 Chicks (Gallus gallus domesticus). The conditions noted are these: infected chickens.

Regarding `CC[C@H](C)[C@H](N)C1=N[C@H](C(=O)N[C@@H](CC(C)C)C(=O)N[C@H](CCC(=O)O)C(=O)N[C@H](C(=O)N[C@H]2CCCCNC(=O)[C@H](CC(N)=O)NC(=O)[C@@H](CC(=O)O)NC(=O)[C@H](Cc3cnc[nH]3)NC(=O)[C@@H](Cc3ccccc3)NC(=O)[C@H]([C@@H](C)CC)NC(=O)[C@@H](CCCN)NC2=O)[C@@H](C)CC)CS1` [Treatment Group 5, Bacitracin] ({Ileψ(thiazoline)Cys}-L[dE]IK[dOrn]I[dF]H[dD]N; lactam 4-C), the “Weight Gain Day 0-28” value is 0.811a kg. The “Weight gain over the infected negative control” value (Day 0-28) is reported as “significant increase in weight gain”. The Mortality (Day 28) turned out to be 3.1b %. Also, the “Lesion Score (0-3)” value (Day 28, 0 normal, 3 most severe) stood at 0.5b. For the same molecule, the “Feed Conversion Day 0-28” value (kg of food per kg of body weight) worked out at 1.585c.
